Experimental data published in patent US20110053773A1, “METHODS OF IMPROVING NUTRITIONAL VALUE OF PLANTS” (UNIVERSITY OF TENNESSEE RESEARCH FOUNDATION, priority 2009, published 2011).

How the values were obtained:
[1] = test system: sweet corn variety WH0809; assay: Sugar content of sweet corn kernels (Example 2); type: in vivo; conditions: for Sugar content Raffanose: treated check 0.51; for Sugar content Maltose: treated check 0.61; for Sugar content Fructose: treated check 1.04; for Sugar content Glucose: treated check 1.91; for Sugar content Sucrose: treated check 10.72
Method: (§1) A field study was conducted at Greenback, TN to investigate POST applications of several herbicide inhibitors of photosynthesis for sweet corn safety and for changes in carbohydrate content in the kernels of sweet corn among treatments. Treatments included bentazon at 1120 and 2240 g ai/ha, linuron at 280 and 560 g ai/ha, metribuzin at 105 and 210 g ai/ha, and bromoxynil at 560 and 1120 g ai/ha. All treatments included a PRE application of a common residual corn herbicide in order to maintain weed free conditions. […] Sweet corn was harvested from the center two rows of each four row plot and weighed in the husk. Eight ears of corn were harvested from each plot and were pooled over replicates for analysis of key carbohydrates which included the sugars sucrose, fructose, glucose, maltose, and raffanose.

[2] = test system: sweet corn variety WH0809; assay: Visual injury of sweet corn after POST herbicide inhibitors of photosynthesis (Example 2); type: in vivo
Method: as §1

[3] = test system: sweet corn variety WH0809; assay: Sweet corn yield, harvested and weighed in the husk (Example 2); type: in vivo; conditions: treated check 9758.4
Method: as §1

[4] = test system: basil 'Genovese'; assay: Visual injury of basil after insecticide, fungicide, PGRs, safeners (Example 4)
Method: (§2) Greenhouse and laboratory studies were conducted to ascertain the tolerance and nutritional quality differences following postemergence applications of the insecticide chlorpyrifos, the fungicide chlorothalonil, the PGRs mepiquat-chloride and paclobutrazol, and the safeners napthalic anhydride and isoxadifen-ethyl on kale ‘Red Russian’ and basil ‘Genovese’. Visual injury was rated based on general phytotoxicity, chlorosis, and visual stunting and each measurement was based on a percent scale from 0 to 100 where 0 equals no visual response and 100 equals complete plant death. Kale and basil were both harvested approximately 4 weeks after treatments and plants were pooled over replicates for content analysis of crude protein, crude amino acid content, acid detergent fiber, neutral detergent fiber, total fatty acids, and/or key mineral content (including Na, Ca, P, Mg, K, Fe, Mn, Zn, and Cu). In addition, the amounts of key individual amino acids (aspartic acid, threonine, glutamic acid, proline, glycine, cysteine, valine, leucine, isoleucine, methionine, and lysine) and composite classifications of fatty acid (saturated fatty acids, monounsaturated fatty acids, polyunsaturated fatty acids) were also analyzed from these sub-samples for kale (Tables 10-14).

[5] = test system: basil 'Genovese'; assay: Content analysis of basil: protein, minerals (Example 4, Tables 10-11); type: in vivo; conditions: 28 DA-A
Method: as §2

[6] = test system: basil ‘Genovese’; assay: Yield, fresh weight of basil after insecticide, fungicide, PGRs and safeners (Example 4, Table 10); type: in vivo; conditions: DA-A, check 31.8
Method: as §2

[7] = 7 DA-A, rates g ai/ha: chlropyrifos 1120, chlorothalonil 2630, paclobutrazol 3.23, mepiquat-chloride 12.3, Isoxadifen 8, Napthalic anhydride 264, + NIS 0.25 % v/v
[8] = 7 DA-A, rates g ai/ha: chlropyrifos 3370, chlorothalonil 7900, paclobutrazol 9.7, mepiquat-chloride 37, Isoxadifen 16, Napthalic anhydride 527, + NIS 0.25 % v/v
[9] = 14 DA-A, rates g ai/ha: chlropyrifos 1120, chlorothalonil 2630, paclobutrazol 3.23, mepiquat-chloride 12.3, Isoxadifen 8, Napthalic anhydride 264, + NIS 0.25 % v/v
[10] = 14 DA-A, rates g ai/ha: chlropyrifos 3370, chlorothalonil 7900, paclobutrazol 9.7, mepiquat-chloride 37, Isoxadifen 16, Napthalic anhydride 527, + NIS 0.25 % v/v
[11] = 28 DA-A, rates g ai/ha: chlropyrifos 1120, chlorothalonil 2630, paclobutrazol 3.23, mepiquat-chloride 12.3, Isoxadifen 8, Napthalic anhydride 264, + NIS 0.25 % v/v
[12] = 28 DA-A, rates g ai/ha: chlropyrifos 3370, chlorothalonil 7900, paclobutrazol 9.7, mepiquat-chloride 37, Isoxadifen 16, Napthalic anhydride 527, + NIS 0.25 % v/v
[13] = rates g ai/ha: chlroprifos 3370, chlorothalonil 7900, paclobutrazol 9.7, mepiquat-chloride 37, Isoxadifen 16, Napthalic anhydride 527, + NIS 0.25 % v/v
[14] = rates g ai/ha: chlropyrifos 1120, chlorothalonil 2630, paclobutrazol 3.23, mepiquat-chloride 12.3, Isoxadifen 8, Napthalic anhydride 264, + NIS 0.25 % v/v
[15] = rates g ai/ha: chlropyrifos 3370, chlorothalonil 7900, paclobutrazol 9.7, mepiquat-chloride 37, Isoxadifen 16, Napthalic anhydride 527, + NIS 0.25 % v/v

## CC(C)N1C(=O)c2ccccc2NS1(=O)=O [BENTAZON, bentazon]
[1]; 1120 g ai/ha + COC 1% v/v POST
  Sugar content Raffanose: 0.56 mg/g dw
  Sugar content Maltose: 0.96 mg/g dw
  Sugar content Fructose: 1.69 mg/g dw
  Sugar content Glucose: 2.65 mg/g dw
  Sugar content Sucrose: 13.18 mg/g dw
[1]; 2240 g ai/ha + COC 1% v/v POST
  Sugar content Raffanose: 0.84 mg/g dw
  Sugar content Maltose: 1.26 mg/g dw
  Sugar content Fructose: 1.78 mg/g dw
  Sugar content Glucose: 3.41 mg/g dw
  Sugar content Sucrose: 18.67 mg/g dw
[2]; 1120 g ai/ha + COC 1% v/v POST, 1st of 3 Injury columns, rating date not given
  Injury: 5%
[2]; 1120 g ai/ha + COC 1% v/v POST, 2nd of 3 Injury columns (agrees with 14 DAT of b67)
  Injury: 17%
[2]; 1120 g ai/ha + COC 1% v/v POST, 3rd of 3 Injury columns, rating date not given
  Injury: 0%
[2]; 2240 g ai/ha + COC 1% v/v POST, 1st of 3 Injury columns, rating date not given
  Injury: 12%
[2]; 2240 g ai/ha + COC 1% v/v POST, 2nd of 3 Injury columns (agrees with 14 DAT of b67)
  Injury: 10%
[2]; 2240 g ai/ha + COC 1% v/v POST, 3rd of 3 Injury columns, rating date not given
  Injury: 2%
[3]; 1120 g ai/ha + COC 1% v/v POST
  YIELD: 10317 kg
[3]; 2240 g ai/ha + COC 1% v/v POST
  YIELD: 10565.6 kg

## CCOC(=O)C1=NOC(c2ccccc2)(c2ccccc2)C1 [isoxadifen, isoxadifen-ethyl]
[4]; [7]
  Phytotoxicity Chlorosis: 8%
  Phytotoxicity General: 3%
  Phytotoxicity Stunting: 2%
[4]; [8]
  Phytotoxicity Chlorosis: 7%
  Phytotoxicity General: 7%
  Phytotoxicity Stunting: 7%
[4]; [9]
  Phytotoxicity Chlorosis: 5%
  Phytotoxicity General: 2%
  Phytotoxicity Stunting: 5%
[4]; [10]
  Phytotoxicity Chlorosis: 8%
  Phytotoxicity General: 8%
  Phytotoxicity Stunting: 10%
[4]; [11]
  Phytotoxicity Chlorosis: 2%
  Phytotoxicity General: 2%
  Phytotoxicity Stunting: 5%
[4]; [12]
  Phytotoxicity Chlorosis: 0%
  Phytotoxicity General: 7%
  Phytotoxicity Stunting: 8%
[5]; [13]
  ADF, Percent Increase Over the Untreated Check (on a % dry matter basis): 13 % check
  Calcium, Percent Increase Over the Untreated Check (on a % dry matter basis): 6 % check
  Copper, Percent Increase Over the Untreated Check (on a % dry matter basis): 0 % check
  Iron, Percent Increase Over the Untreated Check (on a % dry matter basis): 27 % check
  Magnesium, Percent Increase Over the Untreated Check (on a % dry matter basis): 12 % check
  Manganese, Percent Increase Over the Untreated Check (on a % dry matter basis): 118 % check
  NDF, Percent Increase Over the Untreated Check (on a % dry matter basis): 0 % check
  Phosphorous, Percent Increase Over the Untreated Check (on a % dry matter basis): 28 % check
  Potassium, Percent Increase Over the Untreated Check (on a % dry matter basis): 16 % check
  Protein, Percent Increase Over the Untreated Check (on a % dry matter basis): 22 % check
  Sodium, Percent Increase Over the Untreated Check (on a % dry matter basis): 17 % check
  Soluble protein, Percent Increase Over the Untreated Check (on a % dry matter basis): 4 % check
  Zinc, Percent Increase Over the Untreated Check (on a % dry matter basis): 34 % check
[5]; [14]
  ADF, Percent Increase Over the Untreated Check (on a % dry matter basis): 6 % check
  Calcium, Percent Increase Over the Untreated Check (on a % dry matter basis): −2 % check
  Copper, Percent Increase Over the Untreated Check (on a % dry matter basis): 0 % check
  Iron, Percent Increase Over the Untreated Check (on a % dry matter basis): 25 % check
  Magnesium, Percent Increase Over the Untreated Check (on a % dry matter basis): 9 % check
  Manganese, Percent Increase Over the Untreated Check (on a % dry matter basis): 10 % check
  NDF, Percent Increase Over the Untreated Check (on a % dry matter basis): 1 % check
  Phosphorous, Percent Increase Over the Untreated Check (on a % dry matter basis): 17 % check
  Potassium, Percent Increase Over the Untreated Check (on a % dry matter basis): 17 % check
  Protein, Percent Increase Over the Untreated Check (on a % dry matter basis): 14 % check
  Sodium, Percent Increase Over the Untreated Check (on a % dry matter basis): 27 % check
  Soluble protein, Percent Increase Over the Untreated Check (on a % dry matter basis): 12 % check
  Zinc, Percent Increase Over the Untreated Check (on a % dry matter basis): 38 % check
[6]; [14]
  Yield Fresh weight: 34.2 grams
[6]; [15]
  Yield Fresh weight: 36.9 grams

## O=C1OC(=O)c2cccc3cccc1c23 [napthalic anhydride]
[4]; [7]
  Phytotoxicity Chlorosis: 0%
  Phytotoxicity General: 5%
  Phytotoxicity Stunting: 0%
[4]; [8]
  Phytotoxicity Chlorosis: 2%
  Phytotoxicity General: 7%
  Phytotoxicity Stunting: 5%
[4]; [9]
  Phytotoxicity Chlorosis: 3%
  Phytotoxicity General: 7%
  Phytotoxicity Stunting: 0%
[4]; [10]
  Phytotoxicity Chlorosis: 2%
  Phytotoxicity General: 10%
  Phytotoxicity Stunting: 7%
[4]; [11]
  Phytotoxicity Chlorosis: 2%
  Phytotoxicity General: 5%
  Phytotoxicity Stunting: 0%
[4]; [12]
  Phytotoxicity Chlorosis: 2%
  Phytotoxicity General: 3%
  Phytotoxicity Stunting: 7%
[5]; [13]
  ADF, Percent Increase Over the Untreated Check (on a % dry matter basis): 4 % check
  Calcium, Percent Increase Over the Untreated Check (on a % dry matter basis): −8 % check
  Copper, Percent Increase Over the Untreated Check (on a % dry matter basis): −17 % check
  Iron, Percent Increase Over the Untreated Check (on a % dry matter basis): 0 % check
  Magnesium, Percent Increase Over the Untreated Check (on a % dry matter basis): −6 % check
  Manganese, Percent Increase Over the Untreated Check (on a % dry matter basis): −16 % check
  NDF, Percent Increase Over the Untreated Check (on a % dry matter basis): 1 % check
  Phosphorous, Percent Increase Over the Untreated Check (on a % dry matter basis): −9 % check
  Potassium, Percent Increase Over the Untreated Check (on a % dry matter basis): −23 % check
  Protein, Percent Increase Over the Untreated Check (on a % dry matter basis): 3 % check
  Sodium, Percent Increase Over the Untreated Check (on a % dry matter basis): −8 % check
  Soluble protein, Percent Increase Over the Untreated Check (on a % dry matter basis): 31 % check
  Zinc, Percent Increase Over the Untreated Check (on a % dry matter basis): −13 % check
[5]; [14]
  ADF, Percent Increase Over the Untreated Check (on a % dry matter basis): 13 % check
  Calcium, Percent Increase Over the Untreated Check (on a % dry matter basis): 2 % check
  Copper, Percent Increase Over the Untreated Check (on a % dry matter basis): 0 % check
  Iron, Percent Increase Over the Untreated Check (on a % dry matter basis): 14 % check
  Magnesium, Percent Increase Over the Untreated Check (on a % dry matter basis): 12 % check
  Manganese, Percent Increase Over the Untreated Check (on a % dry matter basis): 37 % check
  NDF, Percent Increase Over the Untreated Check (on a % dry matter basis): 2 % check
  Phosphorous, Percent Increase Over the Untreated Check (on a % dry matter basis): 22 % check
  Potassium, Percent Increase Over the Untreated Check (on a % dry matter basis): −4 % check
  Protein, Percent Increase Over the Untreated Check (on a % dry matter basis): 32 % check
  Sodium, Percent Increase Over the Untreated Check (on a % dry matter basis): 33 % check
  Soluble protein, Percent Increase Over the Untreated Check (on a % dry matter basis): 4 % check
  Zinc, Percent Increase Over the Untreated Check (on a % dry matter basis): 47 % check
[6]; [14]
  Yield Fresh weight: 41.5 grams
[6]; [15]
  Yield Fresh weight: 24.5 grams
